PMC7915902, “Preclinical Evaluation of [^18F]FACH in Healthy Mice and Piglets: An ^18F-Labeled Ligand for Imaging of Monocarboxylate Transporters with PET” (International Journal of Molecular Sciences, 2021)
Several values for one entry are separate records, joined by “and”; a condition that tells them apart may be missing. Identical values can stand only once.

Legend:
plasma protein = assay: Plasma protein binding ex vivo (ultrafiltration); format: in vitro ADME; conditions: mouse plasma, 70 min after i.v. injection
Description: To measure plasma protein binding in vitro, a 1 mL portion of piglet plasma was incubated with 4.9 MBq [^18F]FACH (10 µL) on a shaker (400 rpm) for 20 min at 37 °C. The plasma protein binding was also measured ex vivo in 10 µL portions of mouse plasma from retro-orbital blood samples collected 70 min after intravenous (i.v.) injection of 3.7 MBq [^18F]FACH via a tail vein. The free and bound fractions of [^18F]FACH were separated by centrifugation at room temperature (2000 g for ten minutes, Centrifree® YM-30, Ultrafiltration Device; Merck KGaA, Darmstadt, Germany). Radioactivity was measured in aliquots of ultrafiltrate and in prefiltration plasma samples, using a Wizard 2470 γ-counter (PerkinElmer LAS, Rodgau, Germany), and the free fraction in the plasma (fp) calculated from the concentration ratio.

MCTs = assay: Ex vivo biodistribution in mice; set-up: species or system mouse; conditions: for SUV adipose tissue / SUV adrenal gland / SUV bladder / SUV blood / SUV brain / SUV caecum / SUV femur / SUV gall bladder / SUV heart / SUV kidney / SUV large intestine / SUV liver / SUV lung / SUV ovar / SUV pancreas / SUV plasma / SUV small intestine / SUV spleen / SUV stomach / SUV urine: ex vivo, control
Description: Adult mice (28 to 39 g bodyweight) under isoflurane anesthesia were pre-treated by i.v. injection of saline as control (n = 3 for each time point) or 25 mg/kg α-CCA-Na (n = 3 for each time point) ten min before i.v. injection of [^18F]FACH (0.53 ± 0.06 MBq, 0.14 to 0.29 pmol/g bodyweight). The animals were euthanized by anesthesia overdose and cervical dislocation at five, 15 and 30 min after i.v. [^18F]FACH administration, and the radioactivity concentrations in harvested tissues were measured by a gamma counter (PerkinElmer), decay-corrected and normalized to the administered dose and tissue weight, and expressed as SUV in their harvested tissues. The red blood cell to plasma ratio was calculated as described by Bower et al.

SMCT1 = test system: SMCT1; set-up: method as in PMID 31017677; conditions: [14C]nicotinate uptake assay; read-out: IC50 towards SMCT1; cited from earlier work
[1] = Metabolism and renal excretion of [18F]FACH in piglets (radio-HPLC, graphical analysis)
Description: Radio-metabolites were analyzed by analytical and semi-preparative HPLC on a JASCO LC-2000 system (JASCO Labor- und Datentechnik, Gross-Umstadt, Germany), consisting of a PU-2080 Plus pump, AS-2055 Plus auto injector (100 μL sample loop) or a manual injection valve with a 5 mL sample loop, and a UV-2070 Plus detector coupled with a gamma radioactivity HPLC detector (Gabi Star, Raytest Isotopenmessgeräte GmbH, Straubenhardt, Germany). Data analysis was performed with the Galaxie chromatography software (Agilent Technologies, Santa Clara, CA, USA). […] For analytical and semi-preparative radio-HPLC analyses, Reprosil-Pur columns (C18-AQ 250 × 4.6 mm; 5 μm; and C18-AQ 150 × 4.6 mm; 10 μm; Dr. Maisch HPLC GmbH; Ammerbuch-Entringen, Germany) were used. Acetonitrile (ACN) mixed with a 20 mM aqueous solution of ammonium acetate (NH4OAc) was used as eluent.
In corresponding piglet studies (n = 5), plasma was separated from the arterial blood samples drawn during the PET recordings at certain time points.
In piglet studies, similar procedures were implemented for preparing samples from plasma collected at 15, 30, 45 and 60 min p.i., with the exception of collecting the urine sample only at 60 min p.i. Additionally, in order to measure the radio-metabolites in the piglet kidney, the tissue was resected at 60 min p.i. and after washing in PBS, samples of the kidney cortex and medulla were isolated and homogenized in demineralized water (2 mL/g tissue) using a borosilicate glass mortar with ten strokes of a PTFE plunger at 1000 rpm (Potter S, Homogenizer, B. Braun Biotech, Sartorius AG, Göttingen, Germany). Protein precipitation was performed by addition of ice-cold ACN/H2O at a ratio of 4:1 (v/v) of organic solvent to each tissue sample. The samples were vortexed for 3 min, placed on ice for 3 min, and the suspensions were centrifuged at 12,000 rpm at 4 °C for 5 min. For the second extraction, the precipitates were washed with 200 μL of the solvent mixture and subjected to the same procedure. The combined supernatants (total volume between 68 mL) were concentrated at 70 °C under argon flow to a final volume of approximately 2 mL and analyzed by semi-preparative RP radio-HPLC. […] The analyses were performed in gradient mode using 10% ACN/20 mM NH4OAc (aq.) as eluent A and 90% ACN/20 mM NH4OAc (aq.) as eluent B under the following conditions:
To determine the percentage of the radioactivity in the supernatants compared to the total radioactivity aliquots were taken at each step and, as well as the precipitates, quantified by gamma counting.
By interpolation of the measured radio-metabolite fractions from the piglet PET studies, the continuous TACs for [^18F]FACH and its radio-metabolites were calculated. Subsequently, the magnitudes of the whole body rate constant for [^18F]FACH metabolism (k0) and the elimination rate constant for the radio-metabolites (k−1) under control and pre-treated conditions were calculated as described previously [32]. Graphical analysis of the integrals of the plasma time-concentration series of PET tracers and their radio-metabolite(s) follow a linear relationship [32, 47], where the ordinate intercept is equal to the whole body fractional rate constant for the metabolism of the parent, designated k0 (min^−1). The linear regression slope corresponds to the fractional rate constant for the elimination of the radio-metabolite from circulation, designated k−1 (min^−1), which indicates the renal clearance of the radio-metabolite.

For `CCCN(CCC[18F])c1ccc(/C=C(\C#N)C(=O)O)c(OC)c1` [[^18F]FACH, (E)-2-cyano-3-{4-[(3-[^18F]fluoropropyl)(propyl)amino]-2-methoxyphenyl}acrylic acid], the “free plasma fraction (fp)” value (plasma protein) was 0.07, the “red blood cell to plasma ratio” value (MCTs; biodistribution studies) was < 0.1 and the SUV adipose tissue (MCTs; 5 min p.i.) was 0.12. The SUV adrenal gland (MCTs; 5 min p.i.) was 0.80, the SUV bladder (MCTs; 5 min p.i.) was 0.17 and the SUV blood (MCTs; 5 min p.i.) was 1.85 ± 0.29 and 1.85. For the same molecule, the SUV brain (MCTs; 5 min p.i.) was 0.08, the SUV caecum (MCTs; 5 min p.i.) was 0.18 and the SUV femur (MCTs; 5 min p.i.) was 0.17. The SUV gall bladder (MCTs; 5 min p.i.) was 4.61, the SUV heart (MCTs; 5 min p.i.) was 0.74 and the SUV kidney (MCTs; 5 min p.i.) was 7.97. The SUV large intestine (MCTs; 5 min p.i.) was 0.24, the SUV liver (MCTs; 5 min p.i.) was 9.65 and the SUV lung (MCTs; 5 min p.i.) was 0.89 ± 0.12 and 0.89. For the same molecule, the SUV ovar (MCTs; 5 min p.i.) was 0.38, the SUV pancreas (MCTs; 5 min p.i.) was 0.51 and the SUV plasma (MCTs; 5 min p.i.) was 3.77 ± 0.57 and 3.77. It also gave an SUV small intestine (MCTs; 5 min p.i.) of 0.56, an SUV spleen (MCTs; 5 min p.i.) of 0.37 and an SUV stomach (MCTs; 5 min p.i.) of 0.16. For the same molecule, the SUV urine (MCTs; 5 min p.i.) was 0.82, the SUV adipose tissue (MCTs; 15 min p.i.) was 0.18 and the SUV adrenal gland (MCTs; 15 min p.i.) was 0.94. It also gave an SUV bladder (MCTs; 15 min p.i.) of 0.35, an SUV blood (MCTs; 15 min p.i.) of 0.91 and an SUV brain (MCTs; 15 min p.i.) of 0.04. For the same molecule, the SUV caecum (MCTs; 15 min p.i.) was 0.15, the SUV femur (MCTs; 15 min p.i.) was 0.12 and the SUV gall bladder (MCTs; 15 min p.i.) was 5.36. For the same molecule, the SUV heart (MCTs; 15 min p.i.) was 0.53, the SUV kidney (MCTs; 15 min p.i.) was 12.81 and the SUV large intestine (MCTs; 15 min p.i.) was 0.19. For the same molecule, the SUV liver (MCTs; 15 min p.i.) was 10.65, the SUV lung (MCTs; 15 min p.i.) was 0.59 and the SUV ovar (MCTs; 15 min p.i.) was 0.33. The SUV pancreas (MCTs; 15 min p.i.) was 0.44, the SUV plasma (MCTs; 15 min p.i.) was 1.76 and the SUV small intestine (MCTs; 15 min p.i.) was 0.66. It also gave an SUV spleen (MCTs; 15 min p.i.) of 0.21, an SUV stomach (MCTs; 15 min p.i.) of 0.13 and an SUV urine (MCTs; 15 min p.i.) of 4.32. For the same molecule, the SUV adipose tissue (MCTs; 30 min p.i.) was 0.15, the SUV adrenal gland (MCTs; 30 min p.i.) was 0.51 and the SUV bladder (MCTs; 30 min p.i.) was 0.31. The SUV blood (MCTs; 30 min p.i.) was 0.82 ± 0.05 and 0.82, the SUV brain (MCTs; 30 min p.i.) was 0.04 and the SUV caecum (MCTs; 30 min p.i.) was 0.19. For the same molecule, the SUV femur (MCTs; 30 min p.i.) was 0.15, the SUV gall bladder (MCTs; 30 min p.i.) was 10.96 and the SUV heart (MCTs; 30 min p.i.) was 0.58. For the same molecule, the SUV kidney (MCTs; 30 min p.i.) was 15.97 ± 1.07 and 15.97, the SUV large intestine (MCTs; 30 min p.i.) was 0.26 and the SUV liver (MCTs; 30 min p.i.) was 8.48. For the same molecule, the SUV lung (MCTs; 30 min p.i.) was 0.52 ± 0.02 and 0.52, the SUV ovar (MCTs; 30 min p.i.) was 0.32 and the SUV pancreas (MCTs; 30 min p.i.) was 0.38. For the same molecule, the SUV plasma (MCTs; 30 min p.i.) was 1.69 ± 0.17 and 1.69, the SUV small intestine (MCTs; 30 min p.i.) was 1.11 and the SUV spleen (MCTs; 30 min p.i.) was 0.22. The SUV stomach (MCTs; 30 min p.i.) was 0.20, the SUV urine (MCTs; 30 min p.i.) was 4.57 and the IC50 (SMCT1) was 78 µM. The “apparent rate constant (k0) for [18F]FACH metabolism” value ([1]; piglets, control) was 0.87 ± 0.34 min⁻¹, the “parent radiotracer fraction in plasma” value ([1]; piglets, control, 60 min) was 8.8 ± 4.8% and the “parent radiotracer fraction in plasma” value ([1]; piglets, control, five min) was 42 ± 13%. The “intact radiotracer in urine” value ([1]; piglets, urine 60 min p.i.) was “no intact radiotracer was detectable” and the “parent fraction of [18F]FACH in kidney cortex” value ([1]; two control piglets, 60 min p.i.) was 50.5% and 48.0%.
